Each structure is given as a SMILES string. “And” between values parts separate entries of the source, which are not always exact repeats. Equal values may be shown once. Inconclusive results and toxic doses are left out.

This assay relates to BDF1 mice, B16 melanoma ip, median survival T/C. Kind of assay: NCI In Vivo Anticancer Drug Screen. Data for tumor model B16 Melanoma (intraperitoneal) in B6D2F1 (BDF1) mice. To be noted: endpoint: median survival time, higher = longer survival. The method in brief: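 Compounds were tested in mice carrying transplantable tumors. Survival or tumor size was recorded, and each value is the treated-group measurement (T) divided by that of the vehicle-treated control group (C).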

[1] abbreviates: dose: 10.0 mg/kg/injection, schedule: Q01DX009 (ip), vehicle: saline with Tween-80.
Setting [2] is: dose: 20.0 mg/kg/injection, schedule: Q01DX009 (ip), vehicle: saline with Tween-80.
The mark [3] stands for this setting: dose: 100.0 mg/kg/injection, schedule: Q01DX009 (ip), vehicle: Klucel (hydroxypropylcellulose) (HPC).
[4] abbreviates: dose: 200.0 mg/kg/injection, schedule: Q01DX009 (ip), vehicle: Klucel (hydroxypropylcellulose) (HPC).
Where [5] appears, read: dose: 400.0 mg/kg/injection, schedule: Q01DX009 (ip), vehicle: Klucel (hydroxypropylcellulose) (HPC).
[6] abbreviates: dose: 12.5 mg/kg/injection, schedule: Q01DX009 (ip), vehicle: Klucel (hydroxypropylcellulose) (HPC).
The mark [7] stands for this setting: dose: 25.0 mg/kg/injection, schedule: Q01DX009 (ip), vehicle: Klucel (hydroxypropylcellulose) (HPC).
Where [8] appears, read: dose: 50.0 mg/kg/injection, schedule: Q01DX009 (ip), vehicle: Klucel (hydroxypropylcellulose) (HPC).
The mark [9] stands for this setting: dose: 12.5 mg/kg/injection, schedule: Q01DX009 (ip), vehicle: saline.
Setting [10] is: dose: 25.0 mg/kg/injection, schedule: Q01DX009 (ip), vehicle: saline.

Turning to `O=C/C(Cl)=C(/Cl)C(=O)O`, the T/C runs as follows: (dose: 2.5 mg/kg/injection, schedule: Q01DX009 (ip), vehicle: saline with Tween-80) 99 % of control; (dose: 5.0 mg/kg/injection, schedule: Q01DX009 (ip), vehicle: saline with Tween-80) 87 % of control; under setting [1], 102 % of control; under setting [2], 106 % of control.

For the compound `CC(=O)CC(=O)Nc1cccc(C)c1C`, the T/C reads like this: under setting [3], 94 % of control; under setting [4], 86 % of control; under setting [5], 94 % of control.

Consider `COc1cc(C=Nc2ccc(-c3nc(Cc4ccccc4)sc3C)cc2)ccc1N(CCCl)CCCl`, for which the T/C by setting is: under setting [6], 175 % of control and 186 % of control; under setting [7], 191 % of control.

`O=[N+]([O-])c1cccc([N+](=O)[O-])c1Cl`: the T/C is 99 % of control under setting [1]; 94 % of control under setting [2]; 95 % of control (dose: 40.0 mg/kg/injection, schedule: Q01DX009 (ip), vehicle: saline with Tween-80); 93 % of control (dose: 80.0 mg/kg/injection, schedule: Q01DX009 (ip), vehicle: saline with Tween-80); 91 % of control (dose: 160.0 mg/kg/injection, schedule: Q01DX009 (ip), vehicle: saline with Tween-80).

For `O=[N+]([O-])c1cc([As](=O)(O)O)ccc1Cl`, the T/C under setting [7] is 100 % of control, the T/C under setting [8] was 96 % of control and the T/C under setting [3] was 96 % of control.

As for `S=P(N1CC1)(N1CC1)N1CC1`, the T/C is 104 % of control (dose: 0.5 mg/kg/injection, schedule: Q01DX009 (ip), vehicle: saline); 106 % of control and 120 % of control (dose: 1.0 mg/kg/injection, schedule: Q02DX009 (ip), vehicle: saline); 110 % of control and 120 % of control (dose: 1.5 mg/kg/injection, schedule: Q01DX009 (ip), vehicle: saline); 112 % of control (dose: 1.5 mg/kg/injection, schedule: Q02DX009 (ip), vehicle: saline); 94 % of control and 111 % of control (dose: 2.0 mg/kg/injection, schedule: Q02DX009 (ip), vehicle: saline); 104 % of control and 111 % of control (dose: 3.0 mg/kg/injection, schedule: Q01DX009 (ip), vehicle: saline). Also, the T/C is 120 % of control (dose: 3.0 mg/kg/injection, schedule: Q02DX009 (ip), vehicle: saline); 119 % of control and 120 % of control (dose: 4.0 mg/kg/injection, schedule: Q02DX009 (ip), vehicle: saline); 86 % of control (dose: 6.0 mg/kg/injection, schedule: Q01DX009 (ip), vehicle: saline); 116 % of control and 117 % of control (dose: 6.0 mg/kg/injection, schedule: Q02DX009 (ip), vehicle: saline); 88 % of control and 122 % of control (dose: 8.0 mg/kg/injection, schedule: Q02DX009 (ip), vehicle: saline); 86 % of control (dose: 12.0 mg/kg/injection, schedule: Q02DX009 (ip), vehicle: saline).

On to `Nc1nc2nc[nH]c2c(=O)[nH]1`, for which the T/C (dose: 25.0 mg/kg/injection, schedule: Q01DX009 (ip), vehicle: suspension in saline) was 95 % of control; the T/C (dose: 50.0 mg/kg/injection, schedule: Q01DX009 (ip), vehicle: suspension in saline) is 97 % of control; the T/C (dose: 100.0 mg/kg/injection, schedule: Q01DX009 (ip), vehicle: suspension in saline) was 88 % of control; the T/C (dose: 200.0 mg/kg/injection, schedule: Q01DX009 (ip), vehicle: suspension in saline) was 86 % of control.

Turning to `C[N+](C)(C)CCCC1C2CCC(C2)C1C[N+](C)(C)C` (stereo not drawn), the T/C by setting is: under setting [9], 110 % of control; under setting [10], 110 % of control.

Regarding `CC(C)N(C(=O)c1ccc(C(=O)N(c2ccccc2)C(C)C)cc1)c1ccccc1`, the T/C by setting is: (dose: 12.5 mg/kg/injection, schedule: Q01DX009 (ip), vehicle: saline with Tween-80) 103 % of control; (dose: 25.0 mg/kg/injection, schedule: Q01DX009 (ip), vehicle: saline with Tween-80) 99 % of control; (dose: 50.0 mg/kg/injection, schedule: Q01DX009 (ip), vehicle: saline with Tween-80) 99 % of control.

Turning to `NC(=S)SCCC(=O)O`, the T/C is, setting by setting: under setting [3], 96 % of control; under setting [4], 86 % of control.

As for `C=C1C(=O)OC2CC(C)C3C4OC4C(O)C3(C)C(O)C12` (stereo not drawn), the T/C (dose: 9.38 mg/kg/injection, schedule: Q01DX009 (ip), vehicle: saline) was 94 % of control; the T/C (dose: 18.75 mg/kg/injection, schedule: Q01DX009 (ip), vehicle: saline) is 94 % of control; the T/C (dose: 37.5 mg/kg/injection, schedule: Q01DX009 (ip), vehicle: saline) was 103 % of control.

For the compound `COC(=O)c1ccc(-c2ccccc2)cc1`, the T/C is 93 % of control under setting [6], 88 % of control under setting [7], 97 % of control under setting [8] and 93 % of control under setting [3].

Regarding `CC(=O)NC(C=O)C(O)C(O)C(O)C(=O)O` (stereo not drawn), the T/C runs as follows: under setting [7], 101 % of control; under setting [8], 100 % of control; under setting [3], 92 % of control.

For `COC1C(OC(=O)c2ccc(C)[nH]2)C(O)C(Oc2ccc3c(O)c(NC(=O)c4ccc(O)c(CC=C(C)C)c4)c(=O)oc3c2Cl)OC1(C)C` (stereo not drawn), the T/C runs as follows: (dose: 6.25 mg/kg/injection, schedule: Q01DX009 (ip), vehicle: other) 101 % of control; (dose: 12.5 mg/kg/injection, schedule: Q01DX009 (ip), vehicle: other) 97 % of control and 124 % of control; (dose: 25.0 mg/kg/injection, schedule: Q01DX009 (ip), vehicle: other) 90 % of control and 91 % of control; (dose: 50.0 mg/kg/injection, schedule: Q01DX009 (ip), vehicle: other) 94 % of control.

As for `CN(C)CCCNc1cc(O)c2c(c1O)C(=O)c1ccccc1C2=O`, the T/C was 116 % of control (dose: 50.0 mg/kg/injection, schedule: Q01DX009 (ip), vehicle: water) and 107 % of control (dose: 100.0 mg/kg/injection, schedule: Q01DX009 (ip), vehicle: water).

For the compound `c1nnc(NCNc2nncs2)s1`, the T/C is 108 % of control (dose: 6.25 mg/kg/injection, schedule: Q01DX009 (ip), vehicle: saline); 122 % of control under setting [10]; 109 % of control (dose: 50.0 mg/kg/injection, schedule: Q04DX003 (ip), vehicle: saline); 119 % of control (dose: 100.0 mg/kg/injection, schedule: Q04DX003 (ip), vehicle: saline).

With `Cc1cc(NCCN(C(C)C)C(C)C)nc(/N=C(\N)Nc2ccc(Cl)c(C(F)(F)F)c2)n1`, the T/C was 101 % of control (dose: 2.5 mg/kg/injection, schedule: Q04DX003 (ip), vehicle: Klucel (hydroxypropylcellulose) (HPC)); 92 % of control (dose: 5.0 mg/kg/injection, schedule: Q01DX009 (ip), vehicle: Klucel (hydroxypropylcellulose) (HPC)); 93 % of control (dose: 5.0 mg/kg/injection, schedule: Q04DX003 (ip), vehicle: Klucel (hydroxypropylcellulose) (HPC)); 91 % of control (dose: 10.0 mg/kg/injection, schedule: Q01DX009 (ip), vehicle: Klucel (hydroxypropylcellulose) (HPC)); 102 % of control (dose: 10.0 mg/kg/injection, schedule: Q04DX003 (ip), vehicle: Klucel (hydroxypropylcellulose) (HPC)); 111 % of control (dose: 20.0 mg/kg/injection, schedule: Q04DX003 (ip), vehicle: Klucel (hydroxypropylcellulose) (HPC)).

In the case of `CC(=O)c1ccc2c(c1)N(CCCN1CCN(CCO)CC1)c1ccccc1S2`, the T/C was 98 % of control (dose: 0.78 mg/kg/injection, schedule: Q01DX009 (ip), vehicle: saline); 103 % of control (dose: 1.56 mg/kg/injection, schedule: Q01DX009 (ip), vehicle: saline); 97 % of control (dose: 3.12 mg/kg/injection, schedule: Q01DX009 (ip), vehicle: saline).

Take `OC12CCC[N+]1(Cc1ccccc1)CCC2` (stereo not drawn): the T/C reads like this: under setting [9], 109 % of control; under setting [10], 109 % of control; (dose: 50.0 mg/kg/injection, schedule: Q01DX009 (ip), vehicle: saline) 102 % of control.

`COc1ccc(C(=O)c2cc(OC)c(OC)c(OC)c2)cc1OC`: the T/C by setting is: under setting [3], 110 % of control; (dose: 100.0 mg/kg/injection, schedule: Q01DX009 (ip), vehicle: saline with Tween-80) 111 % of control; under setting [4], 105 % of control; (dose: 200.0 mg/kg/injection, schedule: Q01DX009 (ip), vehicle: saline with Tween-80) 104 % of control; under setting [5], 115 % of control; (dose: 400.0 mg/kg/injection, schedule: Q01DX009 (ip), vehicle: saline with Tween-80) 102 % of control.

The record behind these values is PubChem BioAssay AID192 (DTP/NCI, 2004).
